Here are results for 21 compounds from patent EP1614683B1, “Indazole compounds and pharmaceutical compositions for inhibiting protein kinases, and methods for their use” (priority 1999, dated 2001).

Like-named read-outs stand apart in the source and are kept apart here.

The target of data set [1] is unphosphorylated VEGF-R2Δ50 (Homo sapiens, UniProt P35968, DEL940-989/E990V). As to the kind of experiment: biochemical. As to conditions: for inhibition at 1 µM: read-out: FLVK* (% inhibition).
The target in a further data set is human FGF-R1 (Homo sapiens, UniProt P11362, C488A/C584S/L457V). As to the kind of experiment: FGF-R spectrophotometric assay. As to conditions: read-out: FGF-P* (% inhibition). The format is biochemical. On the procedure:
The spectrophotometric assay was carried out as described above for VEGF-R2, except for the following changes in concentration: FGF-R = 50 nM, ATP = 2 mM, and poly(E4Y1) =15 mM.

In another data set the target is LCK tyrosine kinase (Homo sapiens, UniProt P06239, C224D/P223M). Briefly: LCK spectrophotometric assay. The class given is biochemical. The following applies: read-out: Lck-P* (% inhibition). On the procedure: The spectrophotometric assay was carried out as described above for VEGF-R2, except for the following changes in concentration: LCK = 60 nM, MgCl2 = 0 mM, poly(E4Y1) = 20 mM.

Data set [2] has as its system human umbilical vein endothelial cells (HUVEC). As to the kind of experiment: HUVEC proliferation assay (VEGF-stimulated, MTT). The format is cell-based. The following applies: Table 1. On the procedure: This assay determines the ability of a test compound to inhibit the growth factor-stimulated proliferation of human umbilical vein endothelial cells ("HUVEC"). HUVEC cells (passage 3-4, Clonetics, Corp.) were thawed into EGM2 culture medium (Clonetics Corp) in T75 flasks. Fresh EGM2 medium was added to the flasks 24 hours later. Four or five days later, cells were exposed to another culture medium (F12K medium supplemented with 10% fetal bovine serum (FBS), 60 µg/mL endothelial cell growth supplement (ECGS), and 0.1 mg/mL heparin). Exponentially-growing HUVEC cells were used in experiments thereafter. Ten to twelve thousand HUVEC cells were plated in 96-well dishes in 100 µl of rich, culture medium (described above). The cells were allowed to attach for 24 hours in this medium. The medium was then removed by aspiration and 105 µl of starvation media (F12K+1% FBS) was added to each well. After 24 hours, 15 µl of test agent dissolved in 1% DMSO in starvation medium or this vehicle alone was added into each treatment well; the final DMSO concentration was 0.1%. One hour later, 30 µl of VEGF (30 ng/mL) in starvation media was added to all wells except those containing untreated controls; the final VEGF concentration was 6 ng/mL. Cellular proliferation was quantified 72 hours later by MTT dye reduction, at which time cells were exposed for 4 hours MTT (Promega Corp.).

Another data set in a line: in vitro. The class given is in vitro ADME, human. On the procedure:
Compound metabolism in human liver microsomes was measured by LC-MS analytical assay procedures as follows. First, human liver microsomes (HLM) were thawed and diluted to 5 mg/mL with cold 100 mM potassium phosphate (KPO4) buffer. Appropriate amounts of KPO4 buffer, NADPH-regenerating solution (containing B-NADP, glucose-6-phosphate, glucose-6-phosphate dehydrogenase, and MgCl2), and HLM were preincubated in 13 x 100 mm glass tubes at 37 C for 10 min. (3 tubes per test compound--triplicate). Test compound (5 µM final) was added to each tube to initiate reaction and was mixed by gentle vortexing, followed by incubation at 37 °C. At t=0, 2 h, a 250-µL sample was removed from each incubation tube to separate 12 x 75 mm glass tubes containing 1 mL ice-cold acetonitrile with 0.05 µM reserpine. […] Supernatant was transferred to new 12 x 75 mm glass tubes and evaporated by Speed-Vac centrifugal vacuum evaporator. Samples were reconstituted in 200 µL 0.1 % formic acid/acetonitrile (90/10) and vortexed vigorously to dissolve. The samples were then transferred to separate polypropylene microcentrifuge tubes and centrifuged at 14000 x g for 10 min. (Fisher Micro 14, S/N M0017580). For each replicate (#1-3) at each timepoint (0 and 2 h), an aliquot sample of each test compound was combined into a single HPLC vial insert (6 total samples) for LC-MS analysis, which is described below.

The mark [3] stands for this setting: Table 1, compound concentration 1 µM.
The mark [4] stands for this setting: Homo sapiens, HUVEC, read-out: HUVEC IC50.
The mark [5] stands for this setting: Homo sapiens, HUVEC, + albumin, read-out: HUVEC + albumin IC50.
The mark [6] stands for this setting: human liver microsomes, 5 µM test compound, 37 °C, 2 h.

Sequence of LCK tyrosine kinase (P06239 223-509 P223M/C224D): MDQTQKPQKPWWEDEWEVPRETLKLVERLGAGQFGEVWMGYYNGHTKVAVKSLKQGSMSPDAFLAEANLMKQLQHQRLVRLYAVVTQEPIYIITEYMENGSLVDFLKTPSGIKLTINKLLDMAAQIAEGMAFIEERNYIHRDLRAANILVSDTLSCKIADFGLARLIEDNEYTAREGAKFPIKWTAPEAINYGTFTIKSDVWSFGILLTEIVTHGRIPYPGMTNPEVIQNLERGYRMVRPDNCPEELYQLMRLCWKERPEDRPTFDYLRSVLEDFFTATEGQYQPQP
Sequence of unphosphorylated VEGF-R2Δ50 (P35968 with tags, fused parts or gaps DEL940-989/E990V limits assumed): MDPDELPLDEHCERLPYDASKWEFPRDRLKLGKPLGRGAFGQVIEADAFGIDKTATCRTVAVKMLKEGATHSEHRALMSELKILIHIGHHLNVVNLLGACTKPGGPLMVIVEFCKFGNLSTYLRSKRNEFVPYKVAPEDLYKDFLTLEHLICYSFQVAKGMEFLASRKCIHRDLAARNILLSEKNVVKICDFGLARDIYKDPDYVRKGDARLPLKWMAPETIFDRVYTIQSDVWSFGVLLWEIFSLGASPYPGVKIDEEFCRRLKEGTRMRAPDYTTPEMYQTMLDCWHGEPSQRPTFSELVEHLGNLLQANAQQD
Sequence of human FGF-R1 (P11362 456-766 L457V/C488A/C584S): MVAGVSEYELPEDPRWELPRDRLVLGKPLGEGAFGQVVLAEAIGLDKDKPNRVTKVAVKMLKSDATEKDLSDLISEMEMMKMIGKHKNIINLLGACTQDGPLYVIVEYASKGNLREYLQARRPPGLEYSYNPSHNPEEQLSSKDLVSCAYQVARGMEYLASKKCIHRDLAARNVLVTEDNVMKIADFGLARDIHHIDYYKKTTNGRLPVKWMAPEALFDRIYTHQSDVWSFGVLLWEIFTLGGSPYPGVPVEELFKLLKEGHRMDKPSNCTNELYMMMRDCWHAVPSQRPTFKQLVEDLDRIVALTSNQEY

The inhibition is how much of the control response was suppressed. Take `C(=C\c1n[nH]c2cc(-c3ccncc3)ccc12)/c1nc2ccccc2[nH]1` [Reference Example 29(q), 6-pyrid-4-yl-3-E-[2-(benzimidazol-2-yl)ethenyl]-1H-indazole]: the inhibition at 1 µM in data set [1] is 11%.

In general, IC50 refers to the point on the concentration scale where inhibition reaches its midpoint. Regarding `CN(c1cccc(NC(=O)c2cccc(C(F)(F)F)c2)c1)c1ccc2c(/C=C/c3ccc4c(c3)OCO4)n[nH]c2c1` [16(d), N-(3-{[3-(2-Benzo[1,3]dioxol-5-yl-vinyl)-1H-indazol-6-yl]-methyl-amino}-phenyl)-3-trifluoromethyl-benzamide], the figures for the inhibition at 1 µM on human FGF-R1 (setting [3]) and on LCK tyrosine kinase (setting [3]) were 90% and 33%, respectively. Also, the IC50 in data set [2] (setting [4]) is 11 nM.

As for `O=C(NNC(=O)c1ccccc1Sc1ccc2c(/C=C/c3ccccn3)n[nH]c2c1)c1cccs1` [Reference Example 35(m), 6-[2-((Thien-2-ylhydrazido)carbonyl)phenylsulfanyl]-3-E-[2-(pyridin-2-yl)ethenyl]-1H-indazole], the inhibition at 1 µM on human FGF-R1 (setting [3]) came out at 82%; at LCK tyrosine kinase (setting [3]) it was 61%. In addition, the IC50 in data set [2] (setting [5]) came out at 35 nM.

`CNC(=O)c1ccccc1Nc1ccc2c(/C=C/c3ccccn3)n[nH]c2c1` [Example 39(a), 6-[2-(Methylcarbamoyl)phenylanzino]-3-E-[2-(pyridin-2-yl)ethenyl]-1H-indazole]: the “% remain (HLM, 2 h)” value in the data set “in vitro” (human, microsomes, 2 h, 5 µM) turned out to be 70%.

Consider `O=CNc1ccccc1/C=C/c1n[nH]c2cc(C(=O)c3cccc(NC(=O)c4ccccc4)c3)ccc12` [Example 43, 6-(3-Benzamidobenzoyl)-3-E-[2-(2-formamidophenyl)ethenyl]-1H-indazole], for which the “% remain (HLM, 2 h)” value in the data set “in vitro” (human, microsomes, 2 h, 5 µM) stood at 2%.

In the case of `C(=C\c1n[nH]c2cc(-c3ccncc3)ccc12)/c1ccccc1` [Reference Example 27(f)], the inhibition at 1 µM in data set [1] came to 49%.

For `O=C(c1cccc(NC(=O)c2cccc(Cl)n2)c1)c1ccc2c(/C=C/c3ccccc3)n[nH]c2c1` [19(m), 6-[3-(6-chloropyridin-2-ylcarboxamido)benzoyl]-3-E-styryl-1H-indazole], the inhibition at 1 µM at human FGF-R1 (setting [3]) turned out to be 23%; at LCK tyrosine kinase (setting [3]), 35%. For the same compound, the IC50 in data set [2] (setting [5]) turned out to be 94 nM. Further, the “% remain (HLM, 2 h)” value in the data set “in vitro” (setting [6]) is on record as 61%.

`O=C(Nc1cccc(Oc2ccc3c(/C=C/c4ccco4)n[nH]c3c2)c1)c1ccccc1` [Reference Example 30(c), 6-[3-benzamidophenoxy]-3-[2-(fur-2-yl)ethenyl]-1H-indazole]: the results for the inhibition at 1 µM on human FGF-R1 (setting [3]) and on LCK tyrosine kinase (setting [3]) were 82% and 44%, respectively. Further, the IC50 in data set [2] (setting [5]) was 21 nM; in data set [2] (setting [4]), 2.5 nM.

With `O=C(Nc1cccc(C(=O)c2ccc3c(/C=C/c4ccccc4)n[nH]c3c2)c1)c1ccnc(Cl)c1` [19(o), 6-[3-(2-chloropyridin-4-ylcarboxamido)benzoyl]-3-E-styryl-1H-indazole], in data set [1] (read-out: FLVK ** (% inhibition)), the inhibition at 0.05 µM was found to be 89%.

As for `COc1cccc(/C=C/c2n[nH]c3cc(-c4ccncc4)ccc23)c1` [Reference Example 29(e)], the inhibition at 1 µM in data set [1] was found to be 33%.

In the case of `COc1cc(C(=O)Nc2cccc(C(=O)c3ccc4c(/C=C/c5ccccn5)n[nH]c4c3)c2)cc(Cl)n1` [Reference Example 41(u), 6-[3-((2-chloro-6-methoxypyridin-4-yl)carboxamido)benzoyl]-3-E-[2-(pyridin-2-yl)ethenyl]-1H-indazole], the inhibition at 1 µM on human FGF-R1 (setting [3]) stood at 74%; on LCK tyrosine kinase (setting [3]), 54%. Also, the IC50 in data set [2] (setting [5]) was 7.9 nM.

With `CN(c1cccc(NC(=O)c2ccccc2)c1)c1ccc2c(/C=C/c3ccccc3)n[nH]c2c1` [12(b), N-{3-[Methyl-(3-styryl-1H-indazol-6-yl)-amino]-phenyl}-benzamide], the inhibition at 1 µM on LCK tyrosine kinase (setting [3]) is 32%. Besides, the half-maximal inhibitory concentration (IC50) in data set [2] (setting [5]) stood at 44 nM; in data set [2] (setting [4]) it was 4.8 nM. In addition, the remaining at 2 h, 5 µM in the data set “in vitro” (human, microsomes) turned out to be 29%.

Regarding `O=C(Nc1cccc(C(=O)c2ccc3c(/C=C/c4ccccc4)n[nH]c3c2)c1)OCc1ccccc1` [19(c), [3-(3-Styryl-1H-indazole-6-carbonyl)-phenyl]-carbamic acid benzyl ester], the inhibition at 1 µM on human FGF-R1 (setting [3]) was determined as 68%; on LCK tyrosine kinase (setting [3]), 50%. Also, in data set [2] (setting [4]), the half-inhibitory concentration (IC50) amounted to 17 nM.

On to `O=C(Nc1cccc(C(=O)c2ccc3c(/C=C/c4ccccn4)n[nH]c3c2)c1)c1ccncc1` [Reference Example 41(b), 6-[3-(pyridin-4-ylcarboxamido)benzoyl]-3-E-[2-(pyridin-2-yl)ethenyl]-1H-indazole], for which the results for the inhibition at 1 µM on human FGF-R1 (setting [3]) and at LCK tyrosine kinase (setting [3]) were 31% and 24%, respectively. Further, the values for the IC50 in data set [2] (setting [5]) and in data set [2] (setting [4]) were 9.8 nM and 2 nM, respectively. The remaining at 2 h, 5 µM in the data set “in vitro” (human liver microsomes, 5 µM test compound, 37 °C, 2 h, read-out: % remain (HLM, 2 h)) was found to be 80%.

`Cc1cnc(C(=O)Nc2cccc(N(C)c3ccc4c(/C=C/c5ccccc5)n[nH]c4c3)c2)s1` [12(d), 5-Methyl-thiazole-2-carboxylic acid {3-[methyl-(3-styryl-1H-indazol-6-yl)-amino]-phenyl)-amide]: the inhibition at 1 µM at human FGF-R1 (setting [3]) came to 61%; on LCK tyrosine kinase (setting [3]) it was 31%. Besides, in data set [2] (setting [4]), the concentration for half-maximal inhibition (IC50) came out at 8.1 nM.

In the case of `CONC(=O)c1ccccc1Sc1ccc2c(/C=C/c3ccccn3)n[nH]c2c1` [Reference Example 35(r), 6-[2-(methoxycarbamoyl)phenylsulfanyl]-3-E-[2-(pyridin-2-yl)ethenyl]-1H-indazole], the inhibition at 1 µM on LCK tyrosine kinase (setting [3]) is 16%. Also, the half-inhibitory concentration (IC50) was determined as 2.3 nM in data set [2] (setting [5]) and 0.36 nM in data set [2] (setting [4]). The “% remain (HLM, 2 h)” value in the data set “in vitro” (setting [6]) is 51%.

`CCn1nc(C)cc1C(=O)Nc1cccc(Oc2ccc3c(/C=C/c4ccccc4)n[nH]c3c2)c1` [Reference Example 30(e), 6-[3-((1-Ethyl-3-methyl-1H-pyrazol-5-yl)carboxamido)phenoxy]-3-E-stryrylindazole]: the values for the inhibition at 1 µM on human FGF-R1 (setting [3]) and on LCK tyrosine kinase (setting [3]) were 92% and 62%, respectively. Moreover, in data set [2] (setting [5]), the half-maximal inhibitory concentration (IC50) amounted to 29 nM.

For `CC(=O)c1ccc(C(=O)Nc2cccc(C(=O)c3ccc4c(/C=C/c5ccccn5)n[nH]c4c3)c2)s1` [Reference Example 41(e), 6-[3-((5-acetylthien-2-yl)carboxamido)benzoyl]-3-E-[2-(pyridin-2-yl)ethenyl]-1H-indazole], the inhibition at 1 µM turned out to be 31% on human FGF-R1 (setting [3]) and 21% at LCK tyrosine kinase (setting [3]). Besides, the IC50 in data set [2] (setting [5]) worked out at 5.6 nM; in data set [2] (setting [4]) it was 0.15 nM; in data set [2] (+ albumin, read-out: HUVEC + albumin IC50) it was 6.1 nM. In addition, in the data set “in vitro” (setting [6]), the “% remain (HLM, 2 h)” value was 22%.

With `O=C(Nc1cccc(Nc2ccc3c(/C=C/c4ccccc4)n[nH]c3c2)c1)c1ccccc1` [Example 13, N-[3-(3-Styryl-1H-indazol-6-ylamino)-phenyl)-benzamide], the inhibition at 1 µM at human FGF-R1 was 74%; at LCK tyrosine kinase it was 61%. Further, the results for the half-maximal inhibitory concentration (IC50) in data set [2] (setting [5]) and in data set [2] (setting [4]) were 28 nM and 3.9 nM, respectively.

As for `O=C(NCc1cccc(F)c1)c1ccccc1Sc1ccc2c(/C=C/c3ccccn3)n[nH]c2c1` [Reference Example 35(ff)], the values for the inhibition at 1 µM at human FGF-R1 (setting [3]) and on LCK tyrosine kinase (setting [3]) were 75% and 25%, respectively. In data set [2] (setting [5]), the concentration for half-maximal inhibition (IC50) came to 5.8 nM. Also, the “% remain (HLM, 2 h)” value in “in vitro” (setting [6]) was 31%.

For `O=C(c1cccc(NC(=O)c2cccc3[nH]ccc23)c1)c1ccc2c(/C=N/n3cccc3)n[nH]c2c1` [Example 45(a), 6-[3-(Indol-4-ylcarboxamido)benzoyl]-3-E-[N-(pyrrol-1-yl)iminomethyl]-1H-indazole], in the data set “in vitro” (human, microsomes, 2 h, 5 µM), the “% remain (HLM, 2 h)” value is recorded as 97%.
